# Tested on: Melanoderm cultures
# Test: Solvable Melanin Assay on Melanoderm cultures (3-D skin model)
# Format: cell-based
# Conditions: Melanoderm cultures fed every other day for 2 weeks, controls DMSO 1.292, untreated 1.259
# Method: This experiment was carried out using Melanoderm cultures. Luminescence was measured using a chromameter to assay the degree of melanization of a 3-D skin model.
# Method for Melanoderm Cultures
# Melanoderm cultures were obtained from MatTek Corporation, Ashland, Mass. The Melanoderm was maintained according to the manufacturer's instructions. The basal media used for the maintenance of the Melanoderm cultures was DMEM supplemented with unspecified quantities of Epidermal growth factor, Insulin, Hydrocortisone, and proprietary epidermal differentiation compounds, in addition to anti-fungal and antibiotics.
# For the long term maintenance of the Melanoderms, the basal media was supplemented with both bFGF and a-MSH, compounds which are stimulators of melanocyte growth and melanogenesis. The cultures were fed every other day for a total of 2 weeks—fresh active preparations, prepared in DMSO or culture media, were also applied to the Melanoderms when feeding was performed. Each treatment condition was done in duplicate and digital photographs were taken of the Melanoderm cultures to assess overall pigmentation. As well, microscopic images of the Melanoderms were done to assess the cell viability of the keratinocytes and melanocytes. For further evidence that the treatments were/not cytotoxic, an LDH assay (Promega, Madison, Wis.) was performed on the supernatants from 24 hour post-treatment cultures.
# To prepare tissues for assay:
# After treatment, tissues are usually frozen until completion of the experiment. Thaw tissues, a few at a time and place in D-PBS to remove excess phenol red from the culture medium and residual test article. Remove a single tissue from the insert. Blot dry and place in 1.7 ml. microfuge tube. Repeat for all samples. Add 250 ul Solvable™ (Tissue and Gel Solubilizer 0.5 M—Packard BioScience Co. Catalogue No. 6NE9100 (NEF910)). Close the tube and make sure that the tissue is completely submerged. Incubate at 60° C. overnight along with standards. In the morning, vortex the samples. Sometimes thick tissues will require additional time to complete the solution process. To prepare standard: Dissolve Melanin (Sigma cat. M 8631) in Solvable at 1 mg/ml. The solution may be warmed gently for 15 minutes at 37° C. Store solution in dark. To prepare standard curve: Prepare dilutions from the standard containing 0 ug to 250 ug of melanin in a total of 250 ul Solvable. Incubate dilutions along with samples. To read assay: Cool samples and standards. Centrifuge at 13,000 rpm for 5 minutes to pellet. Fill microwell plate (C-96) with 200 ul each of samples and standards. There is some foaming of samples when pipetted. Blow gently across the samples to break bubbles prior to reading the plate. Read plate at […].
smiles,measurement,setting,value
O=c1oc2cc(O)ccc2cc1-c1ccccc1 [7-hydroxy-3-phenylcoumarin],OD = 490 nm (melanin content),25 uM,1.674
same,OD = 490 nm (melanin content),50 uM,1.339
same,OD = 490 nm (melanin content),75 uM,0.849
same,OD = 490 nm (melanin content),100 uM,0.293

# Source: US7247294B1, “Skin lightening agents, compositions and methods” (Conopco, Inc., priority 2006, dated 2007)
